Experimental data published in PubChem BioAssay (NCI).
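1) Cells in 96-well plates. 2) Compound, 48 h, 5 concentrations. 3) Linear interpolation between surrounding doses. 4) Unreached endpoint = highest concentration. GI50 marks 50% less growth. At the TGI there is no net growth.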

What was measured:
Assay in all cases: NCI tumour cell line growth inhibition, 48 h
NCI-H226 lung = tested on: NCI-H226 lung
CCRF-CEM leukemia = tested on: CCRF-CEM leukemia
HL-60(TB) leukemia = tested on: HL-60(TB) leukemia
OVCAR-3 ovarian = tested on: OVCAR-3 ovarian
U251 CNS = tested on: U251 CNS
HCC-2998 colon = tested on: HCC-2998 colon
SF-539 CNS = tested on: SF-539 CNS
NCI-H23 lung = tested on: NCI-H23 lung
NCI-H460 lung = tested on: NCI-H460 lung
EKVX NSCLC = tested on: EKVX NSCLC

Compound | TGI (NCI-H226 lung) | TGI (CCRF-CEM leukemia) | TGI (HL-60(TB) leukemia) | TGI (OVCAR-3 ovarian) | TGI (U251 CNS) | TGI (HCC-2998 colon) | TGI (SF-539 CNS) | TGI (NCI-H23 lung) | GI50 (NCI-H226 lung) | GI50 (CCRF-CEM leukemia) | GI50 (HL-60(TB) leukemia) | GI50 (OVCAR-3 ovarian) | GI50 (NCI-H460 lung) | TGI (NCI-H460 lung) | GI50 (U251 CNS) | GI50 (EKVX NSCLC) | TGI (EKVX NSCLC) | GI50 (HCC-2998 colon) | GI50 (NCI-H23 lung) | GI50 (SF-539 CNS)
CC(=O)On1c(-c2ccccc2-c2nc3ccccc3n2OC(C)=O)nc2ccccc21 | > 100 µM | > 100 µM | 72.8 µM | > 100 µM | > 100 µM | > 100 µM | > 100 µM | 76.6 µM |  |  |  |  |  |  |  |  |  |  |  | 
COc1ccc(OC)c(-c2cc(-c3ccc(Cl)cc3)nn2-c2ccc(S(=O)(=O)NC(C)=O)cc2)c1 | 23.1 µM | 73.5 µM | 41.9 µM | 64.7 µM | 10.3 µM | 6.93 µM |  | 25.6 µM | 4.07 µM | 20 µM | 3.7 µM | 25.4 µM | 29.3 µM | > 100 µM | 2.9 µM | 14.3 µM | 28 µM | 1.71 µM | 11.3 µM | 
CCn1c(-c2cc3ccccc3cc2O)nn(C(=O)c2c(Cl)cccc2Cl)c1=S | 40.2 µM | > 50 µM | 38.7 µM | > 50 µM | > 50 µM |  | > 50 µM | > 50 µM | 14.2 µM | 27.1 µM | 14.3 µM | 23.7 µM | > 50 µM | > 50 µM | 19.5 µM | > 50 µM | > 50 µM |  | 20.3 µM | > 50 µM
N#CCN/C=C\C(=O)c1ccc(Cl)cc1 | > 100 µM | > 100 µM | > 100 µM | 59.1 µM | > 100 µM |  | 68.3 µM | 86.2 µM | 30 µM | 0.398 µM | 14.2 µM | 17.7 µM | 42.1 µM | > 100 µM | 70.7 µM |  |  |  | 32.9 µM | 27 µM
CCOc1cccc2ccc[n+](CC)c12 | > 100 µM | > 100 µM |  | > 100 µM |  | > 100 µM | > 100 µM | > 100 µM |  |  |  |  |  | > 100 µM |  |  | > 100 µM |  |  | 
COc1ccc(/C=N\Nc2ccc([N+](=O)[O-])cn2)cc1OC | > 100 µM | > 100 µM |  |  | 74.2 µM | > 100 µM | 23.4 µM | > 100 µM | 8.39 µM | > 100 µM |  |  |  |  | 3.56 µM | > 100 µM | > 100 µM | > 100 µM | 53.2 µM | 4.37 µM
O=c1c2cccc3cccc(c4n1CCN=4)c32 | > 100 µM | > 100 µM | > 100 µM | > 100 µM | > 100 µM |  | > 100 µM | > 100 µM |  |  |  |  |  | > 100 µM |  |  | > 100 µM |  |  | 
N#CC1=C(N)NC(N2CCOCC2)=NC12Nc1ccccc1N2 | > 100 µM | > 100 µM | > 100 µM | 70.7 µM | > 100 µM |  | > 100 µM | > 100 µM | 27.3 µM | > 100 µM | 44.2 µM | 20.2 µM |  |  | 52.6 µM | > 100 µM | > 100 µM |  | 21.9 µM | 36.3 µM
O=S1Nc2c(Cl)cc(Cl)c3c(Cl)cc(Cl)c(c23)N1 | 69.5 µM | > 100 µM | > 100 µM | 96.2 µM | 69.6 µM | 99.8 µM | > 100 µM | > 100 µM |  |  |  |  |  |  |  |  | > 100 µM |  |  | 
